Results published in patent US8178548B2, “Anti-infective agents and uses thereof” (priority 2007, dated 2012).
Like-named read-outs stand apart in the source and are kept apart here.

Key:
[1] = system: genotype 1b-Con1 subgenomic replicon cell line; assay: HCV Polymerase Replicon Assay, genotype 1b-Con1 (luciferase reporter); type: cell-based; conditions: Hepatitis C virus, 72 h, read-out: EC50 1b
[2] = system: genotype 1a-H77 subgenomic replicon cell line; assay: HCV Polymerase Replicon Assay, genotype 1a-H77 (luciferase reporter); type: cell-based; conditions: Hepatitis C virus, 72 h, read-out: EC50 1a
[3] = target: T1, HCV polymerase 1A (Δ21 NS5B, H77) (Hepatitis C virus genotype 1a, UniProt P27958); assay: biochemical
T1 construct: 20 to 50 nM Δ21 NS5B
Summary of the method: (§1)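 Δ21 NS5B (20–50 nM) was preincubated with inhibitor, 60–125 μM GTP and 2 mM MnCl2 (pH 7.4) for 15 min at RT. RNA synthesis on 5 nM template with 20 μM CTP/ATP and 1 μM ³H-UTP ran 2–4 h at RT. Spermine-precipitated RNA was filter-counted, and IC50 was fit with a tight-binding equation.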

[4] = target: T2, HCV polymerase 1B (Δ21 NS5B, HCV Strain 1B BK) (Hepatitis C virus genotype 1b, UniProt P26663); assay: biochemical
T2 construct: 20 to 50 nM Δ21 NS5B
Summary of the method: as §1

[5] = replicon 1b-Con1, luciferase, three days
[6] = replicon 1a-H77, luciferase, three days

T1 sequence (P27958 2421-2990, stated change not applied): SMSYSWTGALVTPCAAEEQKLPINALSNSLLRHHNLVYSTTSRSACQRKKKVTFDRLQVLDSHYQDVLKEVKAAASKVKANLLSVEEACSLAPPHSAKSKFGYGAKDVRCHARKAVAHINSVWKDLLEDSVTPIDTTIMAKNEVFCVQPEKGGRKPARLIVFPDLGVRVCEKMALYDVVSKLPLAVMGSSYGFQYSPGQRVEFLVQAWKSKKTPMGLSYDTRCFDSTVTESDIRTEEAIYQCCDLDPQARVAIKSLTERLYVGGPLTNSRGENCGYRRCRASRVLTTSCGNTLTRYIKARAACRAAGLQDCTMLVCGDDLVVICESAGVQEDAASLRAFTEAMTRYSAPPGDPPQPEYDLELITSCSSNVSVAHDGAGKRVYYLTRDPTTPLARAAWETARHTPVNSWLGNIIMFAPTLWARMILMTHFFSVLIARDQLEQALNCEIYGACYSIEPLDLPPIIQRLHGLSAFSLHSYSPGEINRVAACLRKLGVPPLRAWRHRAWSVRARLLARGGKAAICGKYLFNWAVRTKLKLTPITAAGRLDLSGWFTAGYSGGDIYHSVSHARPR
T2 sequence (P26663 2420-2989, stated change not applied): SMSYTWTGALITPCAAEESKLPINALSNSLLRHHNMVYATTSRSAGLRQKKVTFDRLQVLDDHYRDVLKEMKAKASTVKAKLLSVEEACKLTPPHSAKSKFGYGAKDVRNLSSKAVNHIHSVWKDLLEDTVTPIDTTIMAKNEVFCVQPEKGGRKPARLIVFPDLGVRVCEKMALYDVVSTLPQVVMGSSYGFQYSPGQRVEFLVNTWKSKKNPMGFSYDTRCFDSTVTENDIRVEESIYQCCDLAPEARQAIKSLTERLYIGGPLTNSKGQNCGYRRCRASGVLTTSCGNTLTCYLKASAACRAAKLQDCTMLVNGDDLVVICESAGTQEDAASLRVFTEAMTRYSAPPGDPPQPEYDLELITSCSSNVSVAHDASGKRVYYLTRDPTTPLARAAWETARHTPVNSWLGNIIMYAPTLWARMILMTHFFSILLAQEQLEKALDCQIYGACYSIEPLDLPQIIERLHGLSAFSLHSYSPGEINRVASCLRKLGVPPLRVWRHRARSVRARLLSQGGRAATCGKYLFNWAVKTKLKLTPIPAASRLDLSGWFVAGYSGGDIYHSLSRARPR

| Compound | EC50 [1, 5] | EC50 [2, 6] | IC50 [3] | IC50 [4] | EC50 [1] | EC50 [2] |
| --- | --- | --- | --- | --- | --- | --- |
| COc1c(/C=C/c2ccc(NS(C)(=O)=O)cc2)cc(-n2ccc(=O)[nH]c2=O)cc1-c1ccoc1 [IB-L1-1.50, (E)-N-(4-(5-(2,4-dioxo-3,4-dihydropyrimidin-1(2H)-yl)-3-(furan-3-yl)-2-methoxystyryl)phenyl)methanesulfonamide] | 10 to 100 nM | 100 to 1000 nM | 10 to 100 nM | 10 to 100 nM |  |  |
| CNC(=O)c1cc(NS(C)(=O)=O)ccc1/C=C/c1cc(-n2ccc(=O)[nH]c2=O)cc(C(C)(C)C)c1OC [IB-L1-1.17, 2-{(E)-2-[3-tert-butyl-5-(2,4-dioxo-3,4-dihydro-2H-pyrimidin-1-yl)-2-methoxy-phenyl]-vinyl}-5-methanesulfonylamino-N-methyl-benzamide] |  |  | < 10 nM | 10 to 100 nM | < 10 nM | 10 to 100 nM |
| COc1c(/C=C/c2ccc(NS(C)(=O)=O)cc2)cc(-n2ccc(=O)[nH]c2=O)cc1S(C)(=O)=O [IB-L1-1.49, (E)-N-(4-(5-(2,4-dioxo-3,4-dihydropyrimidin-1(2H)-yl)-2-methoxy-3-(methylsulfonyl)styryl)phenyl)methanesulfonamide] | > 1000 nM | > 1000 nM | 10 to 100 nM | 100 to 1000 nM |  |  |
| COc1c(Br)cc(-n2ccc(=O)[nH]c2=O)cc1/C=C/c1ccc(NS(C)(=O)=O)cc1 [IB-L1-1.52, (E)-N-(4-(3-bromo-5-(2,4-dioxo-3,4-dihydropyrimidin-1(2H)-yl)-2-methoxystyryl)phenyl)methanesulfonamide] | 100 to 1000 nM | > 1000 nM | 100 to 1000 nM | 100 to 1000 nM |  |  |
| COc1c(/C=C/c2ccccc2)cc(N2CCC(=O)NC2=O)cc1C(C)(C)C [IA-L1-1.18, (E)-1-(3-tert-butyl-4-methoxy-5-styrylphenyl)dihydro-pyrimidine-2,4(1H,3H)-dione] |  |  | 100 to 1000 nM | 100 to 1000 nM | 100 to 1000 nM | 100 to 1000 nM |
| COc1c(/C=C/c2ccc(NS(C)(=O)=O)c(F)c2)cc(-n2ccc(=O)[nH]c2=O)cc1C(C)(C)C [IB-L1-1.5, (E)-N-(4-(3-tert-butyl-5-(2,4-dioxo-3,4-dihydropyrimidin-1(2H)-yl)-2-methoxystyryl)-2-fluorophenyl)methanesulfonamide] |  |  | < 10 nM | < 10 nM | < 10 nM | 10 to 100 nM |
| COc1c(/C=C/c2ccc(NS(C)(=O)=O)cc2C(=O)N2CCC2)cc(-n2ccc(=O)[nH]c2=O)cc1C(C)(C)C [IB-L1-1.22, N-(3-(azetidine-1-carbonyl)-4-{(E)-2-[3-tert-butyl-5-(2,4-dioxo-3,4-dihydro-2H-pyrimidin-1-yl)-2-methoxy-phenyl]-vinyl}-phenyl)-methanesulfonamide] |  |  | 10 to 100 nM | 10 to 100 nM | < 10 nM | 10 to 100 nM |
| COc1c(I)cc(-n2ccc(=O)[nH]c2=O)cc1/C=C/c1ccc(NS(C)(=O)=O)cc1 [IB-L1-1.51, (E)-N-(4-(5-(2,4-dioxo-3,4-dihydropyrimidin-1(2H)-yl)-3-iodo-2-methoxystyryl)phenyl)methanesulfonamide] | 10 to 100 nM | > 1000 nM | 10 to 100 nM | 10 to 100 nM |  |  |
| COc1c(/C=C/c2ccc(NS(C)(=O)=O)cc2C(=O)N(C)C2CCS(=O)(=O)C2)cc(-n2ccc(=O)[nH]c2=O)cc1C(C)(C)C (stereo not drawn) [IB-L1-1.18, 2-{(E)-2-[3-tert-butyl-5-(2,4-dioxo-3,4-dihydro-2H-pyrimidin-1-yl)-2-methoxy-phenyl]-vinyl}-N-(1,1-dioxo-tetrahydro-1lambda*6*-thiophen-3-yl)-5-methanesulfonylamino-N-methyl-benzamide] |  |  | < 10 nM | 10 to 100 nM | 10 to 100 nM | 10 to 100 nM |
| COc1c(/C=C/c2ccc(NS(C)(=O)=O)cc2)cc(-n2cc(Cl)c(=O)[nH]c2=O)cc1C(C)(C)C [IB-L1-1.20, N-(4-{(E)-2-[3-tert-butyl-5-(5-chloro-2,4-dioxo-3,4-dihydro-2H-pyrimidin-1-yl)-2-methoxyphenyl]-vinyl}-phenyl)-methanesulfonamide] | < 10 nM | 10 to 100 nM | < 10 nM | 10 to 100 nM |  |  |
| COc1c(/C=C\c2ccc(NS(C)(=O)=O)cc2)cc(-n2ccc(=O)[nH]c2=O)cc1C(C)(C)C [IB-L1-1.34, N-(4-{(Z)-2-[3-tert-Butyl-5-(2,4-dioxo-3,4-dihydro-2H-pyrimidin-1-yl)-2-methoxy-phenyl]-vinyl}-phenyl)-methanesulfonamide] |  |  | > 1000 nM | > 1000 nM | < 10 nM | 10 to 100 nM |
| COc1c(/C=C/c2ccc(NS(C)(=O)=O)cc2CN2CCCC2)cc(-n2ccc(=O)[nH]c2=O)cc1C(C)(C)C [IB-L1-1.33, N-(4-{(E)-2-[3-tert-Butyl-5-(2,4-dioxo-3,4-dihydro-2H-pyrimidin-1-yl)-2-methoxy-phenyl]-vinyl}-3-pyrrolidin-1-ylmethyl-phenyl)-methanesulfonamide] |  |  | 100 to 1000 nM | 100 to 1000 nM | 10 to 100 nM | 100 to 1000 nM |
| CC(C)(C)c1cc(-n2ccc(=O)[nH]c2=O)cc(/C=C/c2ccc(NS(C)(=O)=O)cc2)c1Cl [IB-L1-1.12, N-(4-{(E)-2-[3-tert-Butyl-2-chloro-5-(2,4-dioxo-3,4-dihydro-2H-pyrimidin-1-yl)-phenyl]-vinyl}-phenyl)-methanesulfonamide] | 10 to 100 nM | 10 to 100 nM | < 10 nM | 10 to 100 nM |  |  |
| CO/C(=C\c1cc(N2CCC(=O)NC2=O)cc(C(C)(C)C)c1OC)c1ccc(NS(C)(=O)=O)cc1 [IA-L1-1.17, (Z)-N-(4-(2-(3-tert-butyl-5-(2,4-dioxotetrahydropyrimidin-1(2H)-yl)-2-methoxyphenyl)-1-methoxyvinyl)phenyl)methanesulfonamide] |  |  | 10 to 100 nM | 10 to 100 nM | 10 to 100 nM | 10 to 100 nM |
| COC(=O)c1cc(NS(C)(=O)=O)ccc1/C=C/c1cc(-n2ccc(=O)[nH]c2=O)cc(C(C)(C)C)c1OC [IB-L1-1.7, (E)-methyl 2-(3-tert-butyl-5-(2,4-dioxo-3,4-dihydropyrimidin-1(2H)-yl)-2-methoxystyryl)-5-(methylsulfonamido)benzoate] |  |  | < 10 nM | 10 to 100 nM | < 10 nM | < 10 nM |
| COc1c(/C=C/c2ccc(NS(C)(=O)=O)cc2CO)cc(-n2ccc(=O)[nH]c2=O)cc1C(C)(C)C [IB-L1-1.10, (E)-N-(4-(3-tert-butyl-5-(2,4-dioxo-3,4-dihydropyrimidin-1(2H)-yl)-2-methoxystyryl)-3-(hydroxymethyl)phenyl)methanesulfonamide] |  |  | < 10 nM | 10 to 100 nM | < 10 nM | < 10 nM |
| COc1c(/C=C/c2ccc(NS(C)(=O)=O)cc2CNCCC(C)C)cc(-n2ccc(=O)[nH]c2=O)cc1C(C)(C)C [IB-L1-1.31, (E)-N-(4-(3-tert-butyl-5-(2,4-dioxo-3,4-dihydropyrimidin-1(2H)-yl)-2-methoxystyryl)-3-((isopentylamino)methyl)phenyl)methanesulfonamide] |  |  | 10 to 100 nM | 100 to 1000 nM | > 1000 nM | > 1000 nM |
| COc1c(CCc2ccc(NS(C)(=O)=O)cc2)cc(N2CCC(=O)NC2=O)cc1C(C)(C)C [IA-L5-2-1.1, N-(4-(3-tert-butyl-5-(2,4-dioxotetrahydropyrimidin-1(2H)-yl)-2-methoxyphenethyl)phenyl)methanesulfonamide] | 10 to 100 nM | 100 to 1000 nM | 10 to 100 nM | 10 to 100 nM |  |  |
